From ChEMBL document CHEMBL2074210, “A novel human organic anion transporting polypeptide localized to the basolateral hepatocyte membrane” (Am J Physiol Gastrointest Liver Physiol, 2000) come the findings set out here.

Holding throughout (type): functional, cell-based
Series [1] addresses T1, OATP-C (OATP1B1, SLCO1B1) (Homo sapiens, UniProt Q9Y6L6).
T1 sequence (Q9Y6L6 whole entry): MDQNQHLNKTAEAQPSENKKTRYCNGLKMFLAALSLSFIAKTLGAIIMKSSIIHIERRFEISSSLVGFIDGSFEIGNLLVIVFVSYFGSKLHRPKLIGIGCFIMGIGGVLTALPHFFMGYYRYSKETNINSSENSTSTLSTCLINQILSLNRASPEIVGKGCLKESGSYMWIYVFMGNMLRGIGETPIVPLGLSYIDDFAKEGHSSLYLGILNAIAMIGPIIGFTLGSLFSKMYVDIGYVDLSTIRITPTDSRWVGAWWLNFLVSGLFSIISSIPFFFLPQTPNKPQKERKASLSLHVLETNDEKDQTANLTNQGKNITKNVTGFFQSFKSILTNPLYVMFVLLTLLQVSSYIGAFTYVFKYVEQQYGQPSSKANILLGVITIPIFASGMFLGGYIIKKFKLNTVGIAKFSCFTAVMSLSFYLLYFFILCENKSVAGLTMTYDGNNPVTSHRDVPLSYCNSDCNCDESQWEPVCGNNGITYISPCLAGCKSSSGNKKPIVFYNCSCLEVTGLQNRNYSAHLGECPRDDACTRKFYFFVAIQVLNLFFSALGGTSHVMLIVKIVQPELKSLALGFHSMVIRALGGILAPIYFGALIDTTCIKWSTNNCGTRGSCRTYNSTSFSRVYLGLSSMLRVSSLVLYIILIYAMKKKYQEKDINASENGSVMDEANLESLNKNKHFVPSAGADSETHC
Put plainly: TP_TRANSPORTER: inhibition of E217betaG uptake (DIDS: 50 uM, E217betaG: 1 uM) in OATP-C-expressing HEK293 cells. Set-up: scale not given: the % may be the effect or the level left. The following applies: probe E217betaG (estradiol 17beta-glucuronide), read-out: Activity.

Series [2] concerns the target T2, Solute carrier organic anion transporter family member 1B1 (Homo sapiens, UniProt Q9Y6L6).
T2 sequence (Q9Y6L6 whole entry): T1 sequence (Q9Y6L6 whole entry)
Put plainly: (§1) TP_TRANSPORTER: uptake in OATP-C-expressing HEK293 cells.

Series [3] concerns the target T2, Solute carrier organic anion transporter family member 1B1. Put plainly: TP_TRANSPORTER: inhibition of E217betaG uptake in OATP-C-expressing HEK293 cells.
Substrate in series [4]: C[C@]12CC[C@@H]3c4ccc(O)cc4CC[C@H]3[C@@H]1CC[C@@H]2O[C@@H]1O[C@H](C(=O)O)[C@@H](O)[C@H](O)[C@H]1O
The description is as §1.

For `O=S(=O)(O)c1cc(N=C=S)ccc1/C=C/c1ccc(NC=S)cc1S(=O)(=O)O`, the activity at 50 µM in series [1] amounted to 6%. Consider `C=CC1=C(C)/C(=C/c2[nH]c(Cc3[nH]c(/C=C4\NC(=O)C(C)=C4C=C)c(C)c3CCC(=O)O[C@@H]3OC(C(=O)O)[C@@H](O)C(O)C3O)c(CCC(=O)O)c2C)NC1=O` (some centres undefined) [BILIRUBIN MONOGLUCURONIDE], for which, in series [2], the Activity result was “substrate [+]”. One may read the Ki as a measure of affinity in units of concentration, obtained from inhibition or displacement. `O=C1OC(c2ccc(O)c(S(=O)(=O)O)c2)(c2ccc(O)c(S(=O)(=O)O)c2)c2c(Br)c(Br)c(Br)c(Br)c21` [SULFOBROMOPHTHALEIN SODIUM] returned a Ki in series [3] of 44 nM.

B1: Solute carrier organic anion transporter family member 1B1 (Homo sapiens) (protein)
chain: T1 sequence (Q9Y6L6 whole entry)
As a reminder, the Km is the substrate concentration at which the rate is half of its maximum. For B1, the Km in series [4] came out at 8.2 µM.
